Some test systems named below: OVCAR-5 ovarian; U251 CNS; HCT-15 colon; RPMI-8226 leukemia; UACC-257 melanoma; SN12C renal; KM12 colon; OVCAR-4 ovarian; SW-620 colon; CAKI-1 renal.
Holding throughout (test): NCI anticancer screen, dose series, 48 h

Each structure is given as a SMILES string.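 Values below derive from 48-hour exposures of cells grown in 96-well plates, with endpoints linearly interpolated between the two concentrations bracketing the appropriate inhibition level. GI50 marks 50% less growth. At the TGI there is no net growth.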 Where a SMILES comes first, the peptide text is derived from it. [ ]: non-standard residue; d: D form. The star is where a group is joined. ξ: configuration not given here. ξF = NC(Cc1ccccc1)C(=O)O; Cbz = O=C(OCc1ccccc1)*; Aib = CC(C)(N)C(=O)O

This is an account of results in PubChem BioAssay (NCI).

In the case of `CN(C)CCNC(=O)c1cc(Cl)cc2cc3ccccc3nc12`, the TGI stood at 1.97 µM in the assay on OVCAR-5 ovarian; 8.4 µM with U251 CNS; 11.4 µM in the assay on HCT-15 colon; 8.29 µM with RPMI-8226 leukemia; 3.66 µM in the assay with UACC-257 melanoma; 6.9 µM with SN12C renal. The TGI in the assay on KM12 colon is 10.1 µM; with OVCAR-4 ovarian, 8.04 µM; in the assay with SW-620 colon, 7.02 µM.
As for `CCOC(=O)CCC(C(=O)OCC)n1nc2ccc(Nc3c(C)[n+]([O-])c4cc(F)c(OCC)cc4[n+]3[O-])cc2n1` (stereo unspecified), the TGI in the assay with OVCAR-5 ovarian is above 100 µM; in the assay with U251 CNS, 62.7 µM; in the assay on HCT-15 colon it was above 100 µM; in the assay on CAKI-1 renal, above 100 µM; in the assay with RPMI-8226 leukemia it was above 100 µM; in the assay on UACC-257 melanoma it was above 100 µM. Further, the TGI in the assay on SN12C renal, in the assay on KM12 colon, with OVCAR-4 ovarian and in the assay on SW-620 colon was above 100 µM each time.
As to `OCC(O)CNc1ncnc2ccccc12` (stereo unspecified), the TGI with OVCAR-5 ovarian, with U251 CNS, with HCT-15 colon, with CAKI-1 renal, in the assay on RPMI-8226 leukemia and in the assay with UACC-257 melanoma was above 100 µM in each case. The TGI in the assay on SN12C renal, with KM12 colon, in the assay on OVCAR-4 ovarian and in the assay with SW-620 colon was above 100 µM in each case.
On to `O=C1c2cccnc2C(=O)c2c1c(C(=O)OCCN1CCCCC1)c1ccccn21`, for which the GI50 is 0.198 µM in the assay with OVCAR-5 ovarian; 0.0183 µM in the assay on U251 CNS; 0.0416 µM in the assay on HCT-15 colon; 0.0269 µM in the assay with CAKI-1 renal; 0.119 µM with RPMI-8226 leukemia; 0.0878 µM in the assay with UACC-257 melanoma. Besides, the GI50 with SN12C renal was 0.0138 µM; in the assay with KM12 colon, 0.16 µM; in the assay with OVCAR-4 ovarian it was 0.655 µM; in the assay on SW-620 colon, 0.0187 µM. Moreover, the TGI worked out at 2.02 µM in the assay on OVCAR-5 ovarian; 0.179 µM in the assay with U251 CNS; 0.984 µM with HCT-15 colon; 1.53 µM in the assay with CAKI-1 renal; 0.95 µM with RPMI-8226 leukemia; 0.395 µM in the assay on UACC-257 melanoma. Further, the TGI was determined as 0.479 µM with SN12C renal, 9.02 µM in the assay with KM12 colon, 2.3 µM with OVCAR-4 ovarian and 0.362 µM in the assay with SW-620 colon.
Turning to `O=C(CSCC(=O)N/N=C/c1ccccc1)N/N=C\c1ccccc1`, the TGI with OVCAR-5 ovarian, with U251 CNS, in the assay on HCT-15 colon, with CAKI-1 renal, in the assay with RPMI-8226 leukemia and in the assay with UACC-257 melanoma was above 100 µM each time. Further, the TGI in the assay on SN12C renal, with KM12 colon, with OVCAR-4 ovarian and with SW-620 colon was above 100 µM in each case.
Take `CC1(CO)COS(=O)OC1` (stereo unspecified): the TGI with U251 CNS, in the assay on HCT-15 colon, with UACC-257 melanoma, in the assay on SN12C renal, in the assay on KM12 colon and with OVCAR-4 ovarian was above 100 µM throughout. Also, in the assay with SW-620 colon, the TGI is above 100 µM.
As to `CC(C)(C)OC(=O)N1C(OP(=O)(Oc2ccccc2)Oc2ccccc2)=CSc2ccccc21`, the TGI was above 100 µM with OVCAR-5 ovarian; above 100 µM in the assay on U251 CNS; above 100 µM in the assay with HCT-15 colon; 92.3 µM with CAKI-1 renal; 52 µM in the assay with RPMI-8226 leukemia; above 100 µM in the assay with UACC-257 melanoma. Moreover, the TGI in the assay on SN12C renal, with KM12 colon, in the assay on OVCAR-4 ovarian and in the assay with SW-620 colon was above 100 µM throughout.
Take `OC[C@H]1NC[C@@H](O)[C@@H](O)[C@H]1O`: the TGI with OVCAR-5 ovarian, in the assay with U251 CNS, in the assay with HCT-15 colon, in the assay on CAKI-1 renal, with RPMI-8226 leukemia and with UACC-257 melanoma was above 100 µM in each case. Besides, the TGI with SN12C renal, with KM12 colon, in the assay on OVCAR-4 ovarian and in the assay with SW-620 colon was above 100 µM each time.
For `CCOC(=O)CNC(=O)C(Cc1ccccc1)NC(=O)C(C)(C)NC(=O)OCc1ccccc1` (stereo unspecified) (Cbz-[Aib]-[ξF]-Gly-OEt), the TGI in the assay with OVCAR-5 ovarian, in the assay with U251 CNS, with HCT-15 colon, in the assay with CAKI-1 renal, in the assay with RPMI-8226 leukemia and in the assay on UACC-257 melanoma was above 100 µM throughout. In addition, the TGI in the assay with OVCAR-4 ovarian and in the assay with SW-620 colon was above 100 µM each time.
In the case of `CC(C)CCCC(C)[C@H]1CC[C@H]2n3c(nc4ccccc43)CCC[C@]12C` (stereo partly specified), the TGI in the assay on U251 CNS came to 42.6 µM; with HCT-15 colon it was 33.4 µM; in the assay with CAKI-1 renal, 34.3 µM; in the assay with RPMI-8226 leukemia, 33.9 µM; in the assay with UACC-257 melanoma, 38.1 µM; in the assay with SN12C renal, 31.1 µM. Also, the TGI is 52.5 µM in the assay on KM12 colon, 31.5 µM with OVCAR-4 ovarian and 47.3 µM in the assay on SW-620 colon.
In the case of `Nc1[nH]c(=S)nc2nc3c(c(-c4ccccc4)c12)CCCC3`, the TGI in the assay with OVCAR-5 ovarian, in the assay on U251 CNS, with HCT-15 colon, in the assay with CAKI-1 renal, in the assay with RPMI-8226 leukemia and in the assay on SN12C renal was above 100 µM in each case. Moreover, the TGI in the assay with KM12 colon, in the assay on OVCAR-4 ovarian and in the assay on SW-620 colon was above 100 µM throughout.
As to `CN(Cc1cn(O)c2nc(=N)nc(N)c-2n1)c1ccc(C(=O)NC23CC4CC(CC(C4)C2)C3)cc1`, the TGI in the assay on OVCAR-5 ovarian, with U251 CNS, with HCT-15 colon, in the assay on CAKI-1 renal, in the assay on RPMI-8226 leukemia and with UACC-257 melanoma was above 100 µM each time. For the same compound, the TGI with SN12C renal, in the assay on KM12 colon and with SW-620 colon was above 100 µM throughout.
